Key:
[1] = tested on: VASP Ser157 and Ser239 phosphorylation in T84 and HCT116 colon cancer cells; assay type: cell-based, human
[2] = tested on: T84 human colon carcinoma cells; assay type: cell-based

In the case of `Nc1nc2c(nc(Br)n2[C@@H]2O[C@@H]3COP(=O)(O)O[C@H]3[C@H]2O)c(=O)[nH]1` [8-br-cGMP], the “VASP phosphorylation at Ser157 and Ser239” value [1] is reported as “mimicked” and the “Filopodia frequency and length” value [2] is reported as “impaired”.

Reference: patent US20160202261A1 (priority 2011, published 2016)
